System: pain hypersensitivity (allodynia) after chronic constriction injury to the sciatic nerve
Experiment: Von Frey 50% withdrawal threshold in rats with chronic constriction injury to the sciatic nerve (neuropathic pain)
Format: in vivo, Sprague-Dawley rats
Details: allodynic rats, 500 ng single intrathecal injection
Protocol: Eleven adult, Sprague-Dawley rats received an experimental chronic constriction injury to the sciatic nerve (Mosconi & Kruger, 1996, Pain 64:37-57). Pain hypersensitivity, indicative of neuropathic pain, increased progressively over a two week interval and was monitored using the Von Frey technique (Chaplan et al., 1994, J. Neurosci. Methods 53:55-63). Following the development of allodynia (characterized by a 50% withdrawal threshold (WD50) of ≦2.0 g), rats were administered 500 ng tricyclodecan-9-yl-xanthogenate by intrathecal catheter, the tricyclodecan-9-yl-xanthogenate was prepared in a solution of saline (0.9% NaCl) with 10% v/v dimethyl sulfoxide. Tricyclodecan-9-yl-xanthogenate is available from EMD Biosciences (a division of Calbiochem). A solution of saline (0.9% NaCl) with 10% v/v dimethyl sulfoxide was injected into control rats as a vehicle. The volume of the vehicle administered was the same as for the PLCγ inhibitor solution.
Seven allodynic rats received single intrathecal injections of a vehicle, whereas 4 rats received single injections of tricyclodecan-9-yl-xanthogenate; the mean WD50 for both groups was 1.9±0.2 g prior to injections. […] This significant reduction of pain hypersensitivity persisted for greater than 6 hours.

Structure (SMILES): S=C(S)OC1CC2CC1C1CCCC21 (centres unmarked) [tricyclodecan-9-yl-xanthogenate]
- persistence of significant reduction of pain hypersensitivity: greater than 6 hours
- 50% withdrawal threshold (WD50) (4 hours post-injection, pre-injection WD50 1.9±0.2 g, vehicle 4.1±0.7 g, p<0.05): 8.8 ± 2.1 g

Reference: US7718382B2, “Method for identifying compounds for treatment of pain” (Universite Laval, priority 2004, dated 2010)
